According to US4092415A, “Microorganism combatting quinoxaline-di-N-oxide carboxamides” (Ciba-Geigy Corporation, priority 1976, dated 1978):
Read-outs that look alike come from different tables or passages of the source.

What was measured:
Format in all cases: in vivo
[1] = test system: Staph. aureus Smith; test: Intraperitoneally infected white mice, Staph. aureus Smith; settings: Staphylococcus aureus, with infection and 3 hours later, read-out: average effective dose/confidence interval
Description: (§1) In tests carried out on white mice, the intraperitoneally infected animals are treated subcutaneously and perorally as follows:
(§2) The administration is effected in doses of 1 mg, 3 mg, 10 mg, 30 mg, 100 mg or 300 mg of active substance per kg of body weight initially simultaneously with the infection and a second time 3 hours later.

[2] = test system: Salm. ty.-m; test: Intraperitoneally infected white mice, Salm. ty.-m; settings: Mus musculus, with infection and 3 hours later, read-out: average effective dose/confidence interval
Description: as §1, §2

[3] = test system: E. coli 205; test: Intraperitoneally infected white mice, E. coli 205; settings: Escherichia coli, with infection and 3 hours later, read-out: average effective dose/confidence interval
Description: as §1, §2

[4] = test system: Past. mult.; test: Intraperitoneally infected white mice, Past. mult.; settings: Mus musculus, with infection and 3 hours later, read-out: average effective dose/confidence interval
Description: as §1, §2

[5] = test system: Strept. pyog. Aronson; test: Intraperitoneally infected white mice, Strept. pyog. Aronson; settings: Mus musculus; for ED50: with infection and 3 hours later, read-out: average effective dose/confidence interval; for ED20: value marked (ED 20)
Description: as §1, §2

[6] = test system: Pseud. aerug.; test: Intraperitoneally infected white mice, Pseud. aerug.; settings: Mus musculus, with infection and 3 hours later, read-out: average effective dose/confidence interval
Description: as §1, §2

[7] = test system: simultaneously infected hens; test: Single peroral administration to simultaneously infected hens; settings: Gallus gallus, po, single peroral administration by probang, simultaneous with infection
Description: Single peroral administration by means of a probang to
simultaneously infected hens in mg of active substance

[8] = test system: piglets; test: Demonstration of growth: piglets fed 28 days with medicated feed; settings: 50 ppm in feed
Description: A group of eight piglets (four .male. and four .female.) was fed for 28 days with a normal feed containing 17.6% of raw protein and 3.4% of crude fibres and to which 50 ppm of 1,4-dioxido-3-methyl-quinoxaline(2)-N-(2'-cyanoethyl)-carboxamide (Example 1) had been added. The average initial weight of the individual test animals was approx. 9 kg at the start of the test. At the conclusion of the test the animals were weighed individually and the feed consumption determined in groups. For control purposes, a parallel test following the same procedure was carried out using the same feed without the addition of active substance.

Row | Compound | ED50 ([1]; 2 × po.) | ED50 ([1]; 2 × sc.) | ED50 ([2]; 2 × po.) | ED50 ([2]; 2 × sc.) | ED50 ([3]; 2 × po.) | ED50 ([3]; 2 × sc.) | ED50 ([4]; 2 × po.) | ED50 ([4]; 2 × sc.) | ED50 ([5]; 2 × po.) | ED20 ([5]; 2 × sc.) | ED50 ([6]; 2 × po.) | ED50 ([6]; 2 × sc.) | ED50 [7] | Feed consumption index abs. ([8]; average values, control 1.90) | Daily growth rate abs. ([8]; average values, control 231 g) | Daily growth rate rel. ([8]; control 100%) | Feed consumption index rel. ([8]; control 100%) | ED50 ([5]; 2 × sc.) | ED20 ([5]; 2 × po.)
1 | Cc1c(C(=O)NCC#N)[n+]([O-])c2ccccc2[n+]1[O-] [A, 1,4-dioxido-3-methyl-quinoxaline(2)-N-(cyanomethyl)-carboxamide] | 12 mg/kg | 10 mg/kg | 4.2 mg/kg | 3.9 mg/kg | 3.5 mg/kg | 3 mg/kg | 3.4 mg/kg | 3 mg/kg | 265 mg/kg | 205 mg/kg | 75 mg/kg | 120 mg/kg | 2 mg/kg | – | – | – | – | – | –
2 | COC(=O)N/N=C/c1c[n+]([O-])c2ccccc2[n+]1[O-] [E, reference compound] | 35 mg/kg | 2500 mg/kg | 25 mg/kg | 140 mg/kg | 30 mg/kg | 300 mg/kg | ~30 mg/kg | ~100 mg/kg | – | – | – | – | 9 mg/kg | – | – | – | – | – | –
3 | Cc1c(C(=O)NCCC#N)[n+]([O-])c2ccccc2[n+]1[O-] [C, 1,4-Dioxido-3-methyl-quinoxaline(2)-N-(2'-cyanoethyl)-carboxamide] | 27 mg/kg | 18 mg/kg | 11 mg/kg | 10 mg/kg | 6.6 mg/kg | 5.5 mg/kg | 3.9 mg/kg | 5.5 mg/kg | 275 mg/kg | – | 235 mg/kg | 105 mg/kg | – | 1.69 kg of feed consumed per kg of | 305 g | 132% | 88,9% | 400 mg/kg | –
4 | Cc1c(C(=O)NC(C)(C)C#N)[n+]([O-])c2ccccc2[n+]1[O-] [B] | 18 mg/kg | 16 mg/kg | 25 mg/kg | 11 mg/kg | 18 mg/kg | 11 mg/kg | 5.1 mg/kg | 3.2 mg/kg | – | 140 mg/kg | > 300 mg/kg | > 100 mg/kg | – | – | – | – | – | – | 170 mg/kg
5 | Cc1c(C(=O)NCCO)[n+]([O-])c2ccccc2[n+]1[O-] [D, reference compound] | 60 mg/kg | 40 mg/kg | 13 mg/kg | 10 mg/kg | 10 mg/kg | 9 mg/kg | 15 mg/kg | 14 mg/kg | 410 mg/kg | – | 490 mg/kg | 210 mg/kg | 5.3 mg/kg | – | – | – | – | 425 mg/kg | –
